Molecules are shown by their SMILES.

The record followed here is a melting point compilation (Tetko et al.; mined from patent text by program, amines drawn as free bases though some values may be those of a salt).

For the molecule `CC1C(=O)N2CCCC(C(=O)OC(C)(C)C)N2C1=O` (configuration not stated), the melting point (as a rule, the temperature of the solid-liquid transition) lay in the range of 127 to 128 °C.

The molecule `O=C(CCCN1CCC(C(O)c2cccc3ccccc23)CC1)c1ccc(F)cc1` (configuration not stated) displayed a melting point of 172 to 174 °C.

In turn, `O=Cc1cc(-c2cccc(Cl)c2)c2cc(C(c3ccc(Cl)cc3)c3cccnc3)ccc2n1` (configuration not stated) had a melting point of 168 °C.

As to `Nc1nc2ccccc2c2c1ncn2CCOCCCc1ccccn1`, the melting point was 138 to 140 °C.

Molecule `CCCCOCCOc1ccc(-c2ccc3c(c2)C=C(C(=O)Nc2ccc(/C(Cc4nccn4CCC)=N/O)cc2)CCN3CC(C)C)cc1` had a melting point of 154 °C.

Consider `CCCCOc1ccc(C=C2C(=O)C3(C)CCC2C3(C)C)cc1` (configuration not stated), for which the melting point came to 62 °C.

Molecule `NC(=S)NN=Cc1ncc([N+](=O)[O-])n1Cc1ccccc1` showed a melting point of 193 to 196 °C.

`COC(=O)C(=O)Nc1cccc(OCCCBr)c1` registered a melting point of 90 to 91 °C.

For the molecule `CCn1ncc(C(=O)c2ccc(S(C)(=O)=O)c(N3CCOC(O)C3)c2Cl)c1O` (configuration not stated), the melting point lay in the range of 209 to 210 °C.

Take `CNC(=O)N(O)C(C)c1ccc(C)c(Br)c1` (configuration not stated): the melting point lay within 107 to 108 °C.

For the molecule `COc1cccc(CNC(=O)COc2ccn3nc(-c4ccccc4)c(-c4ccc(=O)n(C(C)C)n4)c3c2)c1`, the melting point was in the range of 166 to 168 °C.

`CCN(CC)C(C)CN1c2cc(Cl)ccc2S[C@H]2[C@@H](O)[C@H](O)[C@@H](CO)O[C@H]21` (some centres not stated) came in with a melting point of 185 to 188 °C.

Take `CCCCCCCC[C@H](CC(=O)OC(C)(C)C)C(=O)N1C(=O)OC[C@@H]1C(C)C`: the melting point lay in the range of 58 to 59 °C.

With `CCCCCCCc1ccc(-c2ncc(C#N)cn2)cc1`, the melting point was determined as 96.3 °C.

As to `CCC=Cc1ncc(/C=C(\Cc2cccs2)c2nnn[nH]2)n1Cc1ccccc1Cl`, the melting point lay in the range of 182 to 184 °C.

In turn, `Cc1ccc(S(=O)(=O)N2CCCC2c2ccc(F)c(F)c2)cc1` (racemic) displayed a melting point of 127 °C.

Turning to `CCC1OCCn2c1nc(C(=O)NCc1ccc(F)cc1-n1ncnc1C)c(OCc1ccccc1)c2=O` (configuration not stated), the melting point worked out at 163 °C.

`Cc1cn(-c2cccc(C3=Nc4ccc(-c5ccc(F)cc5)cc4NC(=O)C3)c2)c(C)n1` yielded a melting point of 188 °C.

In the case of `CC(C)(C)C12OOC1(c1ccc(C(=O)N3CCOCC3)c(O)c1)OCC2(C)C` (configuration not stated), the melting point lay in the range of 114 to 116 °C.

In turn, `C=CCn1cc(C(=O)OCC)c(=O)c2cc(F)c(Cl)cc21` had a melting point of 162 to 164 °C.

`CCNC1CC=C(c2c[nH]c3ccc(NC(=N)c4cccs4)cc23)CC1` (configuration not stated) returned a melting point of 190 to 192 °C.

`CCCc1ccc([C@H]2CC[C@H](O)CC2)cc1` registered a melting point of 78.2 to 80 °C.

As for `CN(C)CCCOc1cc(-c2ncccc2Cl)cc2c(Nc3nccs3)n[nH]c12`, the melting point fell in the range of 215 to 217 °C.

Take `CCSC1=C(C#N)C(c2ccccc2)(c2ccccc2)C(=O)N1CCCBr`: the melting point came to 97 °C.

In the case of `CCCc1nc(C)n2c(=O)[nH]nc2c1Cc1ccc(-c2ccccc2C#N)cc1`, the melting point was determined as 196 °C.

`COc1cc(OC)c(CC(=O)c2ccc(C(C)C)c(OS(N)(=O)=O)c2C(C)C)c(OC)c1` had a melting point of 159 to 163 °C.

As to `CCCCCCN(Cc1cccnc1)C(Nc1ccc(OC)cc1OC)=C1C(=O)OC(C)(C)OC1=O`, the melting point fell in the range of 154 to 155 °C.

With `CCCOc1ccc(CO)cc1-c1nc2c(CCC)nn(C)c2c(=O)[nH]1`, the melting point was 174 to 175 °C.

Turning to `COc1cc(C2C3=C(COC3=O)Nc3ccc4cc(C)[nH]c4c32)ccc1F` (configuration not stated), the melting point lay in the range of 198 to 199 °C.

`COc1ccc(C(=NO)c2ccccc2F)c(O)c1Cl` had a melting point of 184 to 186 °C.

For `C[C@H](NC(=O)c1c[nH]c2ncc(-c3nn(C)c4cc(Cl)ccc34)nc12)C(C)(C)C#N`, the melting point was 322 to 328 °C.

The molecule `COC(=O)C1Cc2c([nH]c3ccccc23)C(c2ccc(O)cc2)N1` (configuration not stated) showed a melting point of 233 to 235 °C.

For the molecule `CNC(=O)CC1CN=C(c2cc3cc(Oc4ccc(S(C)(=O)=O)nc4)cc(OC(COC)COC)c3[nH]2)S1` (configuration not stated), the melting point was in the range of 149 to 151 °C.

With `CN(C)C=NC(=Nc1ccccc1)N1CCOCC1`, the melting point was in the range of 109 to 112 °C.

As for `CC1CC(=Cc2ccccc2)c2nc3cc(N)ccc3c(=O)n21` (configuration not stated), the melting point lay in the range of 239 to 241 °C.

Take `COc1ccc(OCc2c(C)cncc2C)c2[nH]c(C3CC3)nc12`: the melting point is 152 to 155 °C.

Consider `Nc1ccc(OS(=O)(=O)c2ccc(NCCO)cc2)cc1[N+](=O)[O-]`, for which the melting point was found to be 180 °C.

Consider `O=Cc1ccc(Sc2nc3cc(F)c(F)cc3[nH]2)o1`, for which the melting point came out at 133 °C.

Molecule `CC(O)(c1ccc(F)cc1)C1CCN(CC2CC(c3ccc4[nH]c(=O)oc4c3)=NO2)CC1` (configuration not stated) yielded a melting point of 125 to 134 °C.

In turn, `CCOCc1nc2c(N)nc3cc(Br)ccc3c2n1CC1(O)CCCC1` gave a melting point of 128 to 130 °C.

On to `ClCc1cccc2c(-c3ccc(Cl)cc3)nccc12`, for which the melting point was in the range of 101 to 102 °C.

Take `CC(C)Cc1c2c(nn1Cc1ccccc1)c(N)nc1ncccc12`: the melting point fell in the range of 232 to 235 °C.

Regarding `CN1C(=O)N(C)C(Cc2c[nH]c3ccccc23)C1CCc1cc(C(F)(F)F)cc(C(F)(F)F)c1` (configuration not stated), the melting point was in the range of 202 to 205 °C.

With `Cn1nnc2c3nc(O)c(O)nc3ccc21`, the melting point is over 300 °C.

Turning to `CCOC(=O)C(=O)Nc1c([N+](=O)[O-])sc2c(F)cccc12`, the melting point was 148 to 151 °C.

Consider `CCOC(=O)C1=C(C)NC(C)=C(C(=O)OCC=CC=Cc2ccccc2)C1c1cccc([N+](=O)[O-])c1` (configuration not stated), for which the melting point was 143 to 147 °C.

`Cn1c(C(F)(F)F)cc(=O)n(-c2c(F)cc(Cl)c3oc(CO)cc23)c1=O`: the melting point is 139 to 141 °C.

`O=C1c2ccccc2C(=O)N1CCN1CCN(C(c2ccccc2)c2ccccn2)CC1` (configuration not stated): the melting point lay within 114 to 117 °C.

Consider `Cn1cnc(COc2nn3c(-c4cnccn4)nnc3cc2-c2ccccc2)n1`, for which the melting point was in the range of 257 to 258 °C.

With `CC(O)=C1C(c2ccccc2)=C(c2ccc(S(C)(=O)=O)cc2)C1(Cl)Cl`, the melting point is 194 to 195 °C.

As to `Cc1ccc2c(c1)C1(COc3cc4c(cc31)OCCO4)C(=O)N2Cc1ncccc1C(F)(F)F` (configuration not stated), the melting point lay within 137 to 139 °C.

`CCCCCCCCCCS(=O)(=O)N[C@H]1CCCNC(=O)C1`: the melting point lay within 98 to 99 °C.

As for `CCCCc1ncc(C(=O)OCC)c(=O)n1Cc1ccc(-c2ccccc2-c2nnn[nH]2)cc1`, the melting point fell in the range of 168 to 173 °C.

`CCOC1CCC(=O)N1S(=O)(=O)C=Cc1ccc(OC)cc1` (configuration not stated) came in with a melting point of 134 to 136 °C.

With `Cc1ccc(OCC(O)CNC(C)C)nc1` (configuration not stated), the melting point was in the range of 62 to 67 °C.

Molecule `CS(=O)(=O)NCCCn1c(-c2ccc(Br)cc2)csc1=Nc1ccccc1` gave a melting point of 128 to 134 °C.

As to `CCOC(=O)C1=C(COCC(C)=O)NC(C)=C(C(=O)OC)C1c1cccc(Cl)c1Cl` (configuration not stated), the melting point lay in the range of 117 to 119 °C.

`CC1(C)OCC(NC2COC(C)(C)OC2)CO1` returned a melting point of 65 °C.

With `Cc1c(C(F)(F)F)nc2c(C(F)(F)F)cccc2c1Br`, the melting point lay within 81.9 to 82.3 °C.

Take `Cc1ccccc1CN(CC(=O)OC(C)(C)C)S(=O)(=O)c1ccc2c(Cl)cnc(Cl)c2c1`: the melting point was in the range of 96 to 98 °C.

In turn, `CC1(C)Oc2ccc(C#N)cc2C(Oc2ccnc(O)c2)C1O` (configuration not stated) gave a melting point of 249 to 250 °C.

In the case of `CCC(=O)c1ccc(O)c(C)c1`, the melting point fell in the range of 83 to 85 °C.

For `CC(C)NC(=O)c1c(NC(=O)c2cc(C(F)(F)F)nn2-c2ncccc2Cl)ccc2cc[nH]c12`, the melting point fell in the range of 240 to 242 °C.

As to `O=c1cc(N2CCOCC2)oc2c(-c3cccc(O)c3)cccc12`, the melting point lay within 203 to 205 °C.

`CCCN1CC(NC(=O)C(C)(C)C)CC2c3cccc4[nH]c(Cl)c(c34)CC21` (configuration not stated): the melting point lay in the range of 146 to 147 °C.

The molecule `COc1cccc(Nc2nc(N)nc3c2-c2ccccc2C3)c1` displayed a melting point of 187 °C.

`O=C1C2C[C@H](O)CN2C(=O)N1c1ccc([N+](=O)[O-])c2ccccc12` (some centres not stated): the melting point fell in the range of 246 to 248 °C.

As to `CCc1cccc2c1C(=O)NS2(=O)=O`, the melting point was in the range of 183 to 185 °C.

`CC1(C)CC(=O)Nc2c(CCN3CCN(c4noc5ccccc45)CC3)cc(F)cc21`: the melting point is 230 °C.

For `CN(CCOc1ccc(CCCN2C(=O)COC2=O)cc1F)c1ccccn1`, the melting point lay in the range of 124 to 125 °C.

Consider `CCCCNc1cc(CNC(=O)OCC)cc(S(N)(=O)=O)c1Oc1ccccc1`, for which the melting point was 105 to 107 °C.

`COc1cc2c(cc1OC)C(C(C)C)C(=O)CC2` (configuration not stated) returned a melting point of 77 to 79 °C.

With `O=C(Cl)c1ccc(C(c2ccc(C(=O)Cl)cc2)(C(F)(F)F)C(F)(F)F)cc1`, the melting point fell in the range of 96 to 97 °C.

`Cc1[nH]c(=O)ccc1C(=O)c1ccc(C#N)cc1` came in with a melting point of 172 to 175 °C.

With `COc1cc2ncc(C#N)c(Nc3ccc4[nH]ccc4c3)c2cc1OC`, the melting point is over 250 °C.

`N#Cc1nn(-c2c(Cl)cc(C(F)(F)F)cc2Cl)c(N)c1-c1ccccc1F` came in with a melting point of 197 °C.

As to `Cc1ccc(S(=O)(=O)NN)cc1`, the melting point stood at 110 °C.

In the case of `Oc1ccc(N=C(C=COc2ccccc2)Oc2ccccc2)cc1`, the melting point was 110 °C.

In the case of `CSc1ncc(Cl)cc1C#N`, the melting point was 147 to 149 °C.

`CC(C)(c1ccccc1)C(n1ccnc1)S(=O)c1ccc(Cl)cc1` (configuration not stated) showed a melting point of 125 to 127 °C.

The molecule `CCCN1CC(CSC)=C[C@H]2Cc3n[nH]cc3C[C@@H]21` (relative stereo) showed a melting point of 133 to 134 °C.

`CCCCCCCCCCCCCCCCN(C(=O)C(F)(F)F)c1ccc(C(=O)O)cc1` returned a melting point of 50 to 53 °C.

Take `CCOC(=O)c1cc2c(n1CCN)CCCC2`: the melting point fell in the range of 102 to 104 °C.

Regarding `CCN1CCN(Cc2nc(-c3ccc4c(c3)Nc3ccccc3S4)cs2)CC1`, the melting point was 182 to 184 °C.

In turn, `CC(C)(Oc1ccc(OCc2cccc3c2cnn3-c2ccc(C(F)(F)F)cc2)cc1)C(=O)O` came in with a melting point of 128 to 130 °C.

Take `CCCCCCSC[C@H](N[C@@H](C)C(=O)N1CCC[C@H]1C(=O)O)C(=O)O`: the melting point fell in the range of 109 to 112 °C.

Molecule `Cc1cc(-c2noc(C(F)F)n2)cc(C)c1OCCCc1cncs1` showed a melting point of 78 to 80 °C.
